One assay deals with G. candidum ATCC 62231. Description: Checkerboard MIC assay, FICI. It is filed as cell-based, Geotricium candidum. The settings on record: combination with Compound 1. The text has this: (§1) The following assay was used to determine the minimum inhibitory concentration (MIC) and fractional inhibitory concentration index (FICI) for combinations of an antifungal agent and a glycopeptide antibacterial agent. This assay and methods for calculating FICI are well known in the art. See, for example, Eliopoulos, E. G. and R. Moellering, Jr. “Antimicrobial Combinations” in Antibiotics in Laboratory Medicine, edited by V. Lorian, 4th Ed., Williams & Wilkins, Baltimore, MD, pp. 330-396 (1996); […] et al., Antimicrobial Agents and Chemotherapy 47(4):1416-1418 (2003); or […] et al., Antimicrobial Agents and Chemotherapy 46(10):3323-3326 (2002). […] The MIC of the glycopeptide antibacterial agent determined from this experiment was used in FIC calculations. […]

The next assay relates to P. boydii ATCC 38283. Description: Checkerboard MIC assay, FICI. It is filed as cell-based, Pseudallescheria boydii. The settings on record: combination with Compound 1.
From the text: as §1

As for `C[C@@H]1[C@H](O)[C@@H](C)/C=C/C=C/C=C/C=C/C=C/C=C/C=C/[C@H](O[C@@H]2O[C@H](C)[C@@H](O)[C@H](N)[C@@H]2O)C[C@@H]2O[C@](O)(C[C@@H](O)C[C@@H](O)[C@H](O)CC[C@@H](O)C[C@@H](O)CC(=O)O[C@H]1C)C[C@H](O)[C@H]2C(=O)O` [Amphotericin B], the FICI in the assay on G. candidum ATCC 62231 was determined as 0.63; in the assay with P. boydii ATCC 38283, 0.38.
Take `C[C@@H]1[C@H](O)[C@@H](C)/C=C/C=C/CC/C=C/C=C/C=C/C=C/C(O[C@H]2O[C@H](C)[C@@H](O)[C@H](N)[C@@H]2O)CC2O[C@](O)(CC(O)C(O)CCC(O)CC(O)CC(O)CC(=O)O[C@H]1C)CC(O)C2C(=O)O` (stereo partly shown) [Nystatin]: the FICI in the assay on G. candidum ATCC 62231 is 0.31; in the assay with P. boydii ATCC 38283, 0.38.

Values taken from patent publication US7521418B2, “Use of a polyene macrolide antifungal agent in combination with a glycopeptide antibacterial agent” (Theravance, Inc., priority 2003, dated 2009).
